IC50, clearance and bioavailability data for 27 compounds are collected here from ChEMBL document CHEMBL1781986, “Structure-activity relationships of pyrrole based S-nitrosoglutathione reductase inhibitors: pyrrole regioisomers and propionic acid replacement” (Bioorg Med Chem Lett, 2011).

Data set [1] can be described thus: Inhibition of GSNOR expressed in Escherichia coli using GSNO by cuvette method.
Data set [2] can be described thus: Inhibition of GSNOR expressed in Escherichia coli using GSNO by plate method.
Data set [3] deals with A549. In words: Cytotoxicity against human A549 cells. It counts as functional, cell-based.
A short description of data set [4]: Clearance in BALB/c mouse plasma at 2 mg/kg, iv or at 10 mg/kg, po administered as single dose. Format: ADME, organism-based.
The nature of data set [5]: Oral bioavailability in BALB/c mouse at 10 mg/kg administered as single dose. Format: ADME, organism-based. The settings on record: in vivo.

`COc1ccc(-c2ccn(-c3ccc(O)c(C(=O)O)c3)c2-c2ccc(C(N)=O)cc2C)cc1` displayed an IC50 in data set [1] of 0.41 µM.
`COc1ccc(-c2ccn(-c3ccc(O)cn3)c2-c2ccc(C(N)=O)cc2C)cc1` displayed an IC50 in data set [1] of 3.02 µM.
The same measure, in the same setting: as for `COc1ccc(-c2ccn(-c3ccc(C(=O)O)c(Cl)c3)c2-c2ccc(C(N)=O)cc2C)cc1`, the figure is 3.47 µM.
As to `COc1cc(Cl)ccc1-n1ccc(CCC(=O)O)c1-c1ccc(C(N)=O)cc1C`, 49 nM corresponded to half-maximal inhibition in data set [2] (IC50).
For `COc1ccc(-c2ccn(-c3cc(F)c(O)c(F)c3)c2-c2ccc(C(N)=O)cc2C)cc1`, it took 0.45 µM to reach half-maximal inhibition in data set [1] (IC50). That is a sub-micromolar value.
`COc1ccc(-c2ccn(C(CC(=O)O)C(C)C)c2-c2ccc(C(N)=O)cc2C)cc1` (stereo not drawn) gave an IC50 in data set [1] of 97.2 µM. This IC50 is about 220-fold higher than that of the compound before.
Same read-out and setting: the same measure for `COc1ccc(-c2ccn(-c3ccc(S(N)(=O)=O)cc3)c2-c2ccc(C(N)=O)cc2C)cc1`: 28.4 µM; for `COc1ccc(-c2ccn(-c3ccc(C(=O)O)nc3)c2-c2ccc(C(N)=O)cc2C)cc1`: 8.53 µM; for `COc1ccc(-c2ccn(C(CC(=O)O)c3ccccc3)c2-c2ccc(C(N)=O)cc2C)cc1` (stereo not drawn): 8.84 µM.
Same read-out and setting: the same measure for `COc1ccc(-c2ccn(-c3ccc(C(=O)O)cc3)c2-c2ccc(C(N)=O)cc2C)cc1`: 0.85 µM.
Turning to `COc1ccc(-c2ccn(C3CCC(C(=O)O)CC3)c2-c2ccc(C(N)=O)cc2C)cc1` (stereo not drawn), the IC50 in data set [1] was > 100 µM.
On to `COc1ccc(-c2ccn(-c3ccc(O)nc3)c2-c2ccc(C(N)=O)cc2C)cc1`, for which it took 21.6 µM to reach half-maximal inhibition in data set [1] (IC50).
On the same count and under the same terms, the same measure for `COc1ccc(-c2ccn(-c3ccc(C(=O)O)cn3)c2-c2ccc(C(N)=O)cc2C)cc1`: 29.6 µM.
The compound `COc1ccc(-n2ccc(CCC(=O)O)c2-c2ccc(C(N)=O)cc2C)cc1` yielded an IC50 in data set [2] of 160 nM. That is a sub-micromolar value.
Regarding `COc1ccc(-c2ccn(CC(O)C(=O)O)c2-c2ccc(C(N)=O)cc2C)cc1` (stereo not drawn), in data set [1], the IC50 worked out at 23.5 µM.
Still for that read-out and setting: as for `CCCC(CC(=O)O)n1ccc(-c2ccc(OC)cc2)c1-c1ccc(C(N)=O)cc1C` (stereo not drawn), the figure is 63.7 µM.
Still for that read-out and setting: as for `COc1ccc(-c2ccn(CC3(C(=O)O)CC3)c2-c2ccc(C(N)=O)cc2C)cc1`, the figure is 8.09 µM.
Still for that read-out and setting: as for `COc1ccc(-c2ccn(C(CC(=O)O)C3CC3)c2-c2ccc(C(N)=O)cc2C)cc1` (stereo not drawn), the figure is > 100 µM.
Take `COc1cc(Cl)ccc1-c1ccc(CCC(=O)O)n1-c1ccc(C(N)=O)cc1C`: the IC50 in data set [2] amounted to 54 nM.
Turning to `COc1ccc(-c2ccn(C(C)CC(=O)O)c2-c2ccc(C(N)=O)cc2C)cc1` (stereo not drawn), in data set [1], half-maximal inhibition (IC50) required 14.1 µM.
Regarding `COc1ccc(-c2ccn(CC(F)(F)C(=O)O)c2-c2ccc(C(N)=O)cc2C)cc1`, 1.51 µM corresponded to half-maximal inhibition in data set [1] (IC50).
Still for that read-out and setting: the same measure for `COc1ccc(-c2ccn(-c3ccc(C(=O)O)c(F)c3)c2-c2ccc(C(N)=O)cc2C)cc1`: 1.57 µM; for `COc1ccc(-c2ccn(CC(N)C(=O)O)c2-c2ccc(C(N)=O)cc2C)cc1` (stereo not drawn): > 100 µM.
On to `COc1ccc(-c2ccn(CCC(=O)O)c2-c2ccc(C(N)=O)cc2C)cc1`, for which the half-maximal inhibitory concentration (IC50) in data set [3] was > 250 µM; in data set [2] it was 660 nM; in data set [1], 0.52 µM. Further, the clearance in data set [4] was 52.3 mL/min/kg. Moreover, the bioavailability in data set [5] was determined as 12.2%.
In data set [1], `COc1ccc(-c2ccn(CC(C)C(=O)O)c2-c2ccc(C(N)=O)cc2C)cc1` (stereo not drawn) yielded a 50% inhibitory concentration (IC50) of 1.97 µM. In other words, the single-digit micromolar range.
The compound `COc1ccc(-c2ccc(CCC(=O)O)n2-c2ccc(C(N)=O)cc2C)cc1` had an IC50 in data set [2] of 180 nM. The clearance in data set [4] came to 35.4 mL/min/kg. The same compound showed a bioavailability in data set [5] of 16.2%.
In data set [1], `COc1ccc(-c2ccn(-c3ccc(O)c(F)c3)c2-c2ccc(C(N)=O)cc2C)cc1` had an IC50 of 0.46 µM. In other words, the sub-micromolar range.

In general, IC50 refers to the concentration that gives 50% inhibition. A lower IC50 goes with inhibition by little substance. Broadly, the bioavailability is dose-corrected exposure relative to a reference, in per cent. The low end stands for poor availability, the high end for good availability.
